Converted amounts (≈) assume the structure as drawn. The source made the active and inactive calls. The rule behind the calls is not given here.
Key:
Poliovirus 1 = experiment: Antiviral activity against Human poliovirus 1 1A/S2 in african green monkey Vero cells; format: functional, organism-based
Aspergillus flavus = experiment: Antifungal activity against Aspergillus flavus; format: functional
Trichophyton rubrum = experiment: Antifungal activity against Trichophyton rubrum; format: functional
Salmonella typhimurium = experiment: Antibacterial activity against Salmonella Typhimurium; format: functional, Salmonella enterica subsp. enterica serovar Typhimurium; conditions: Salmonella enterica
[1] = test system: Mycolicibacterium fortuitum; experiment: Antibacterial activity against Mycobacterium fortuitum; format: functional
Shigella flexneri = experiment: Antibacterial activity against Shigella flexneri; format: functional
[2] = test system: Trichophyton mentagrophytes; experiment: Antifungal activity against Trichophyton mentagrophytes; format: functional
Candida tropicalis = experiment: Antifungal activity against Candida tropicalis; format: functional
Aspergillus niger = experiment: Antifungal activity against Aspergillus niger; format: functional
Human alphaherpesvirus 1 = experiment: Antiviral activity against Herpes simplex virus 1 in african green monkey Vero cells; format: functional, organism-based
Pseudomonas aeruginosa = experiment: Antibacterial activity against Pseudomonas aeruginosa; format: functional
Klebsiella aerogenes = experiment: Antibacterial activity against Enterobacter aerogenes; format: functional
Micrococcus = experiment: Antibacterial activity against Micrococcus sp.; format: functional
Streptococcus pneumoniae = experiment: Antibacterial activity against Streptococcus pneumoniae; format: functional
Aspergillus fumigatus = experiment: Antifungal activity against Aspergillus fumigatus; format: functional
Coxsackievirus = experiment: Antiviral activity against Coxsackievirus B2 in african green monkey Vero cells; format: functional, organism-based
Streptococcus pyogenes = experiment: Antibacterial activity against Streptococcus pyogenes; format: functional
Candida albicans = experiment: Antifungal activity against Candida albicans; format: functional
Klebsiella pneumoniae = experiment: Antibacterial activity against Klebsiella pneumoniae; format: functional
Staphylococcus aureus = experiment: Antibacterial activity against Staphylococcus aureus ATCC 25923; format: functional
Escherichia coli = experiment: Antibacterial activity against Escherichia coli; format: functional
Streptococcus viridans = experiment: Antibacterial activity against Streptococcus viridans; format: functional
Proteus vulgaris = experiment: Antibacterial activity against Proteus vulgaris; format: functional
Microsporum canis = experiment: Antifungal activity against Microsporum canis; format: functional
Neisseria gonorrhoeae = experiment: Antibacterial activity against Neisseria gonorrhoeae; format: functional
Semliki Forest virus = experiment: Antiviral activity against Semliki forest virus in african green monkey Vero cells; format: functional, organism-based
Serratia marcescens = experiment: Antibacterial activity against Serratia marcescens; format: functional

Compound: COc1cc(-c2cc(=O)c3c(O)c(OC)c(OC)cc3o2)cc(OC)c1OC [GRADENIN A]
- Activity (Poliovirus 1): inactive
- MIC (Aspergillus flavus): > 200 µg/mL
- MIC (Trichophyton rubrum): > 200 µg/mL
- MIC (Salmonella typhimurium): 5 µg/mL (≈ 12.9 µM)
- MIC [1]: > 200 µg/mL
- MIC (Shigella flexneri): > 200 µg/mL
- MIC [2]: 50 µg/mL (≈ 129 µM)
- MIC (Candida tropicalis): 20 µg/mL (≈ 51.5 µM)
- MIC (Aspergillus niger): 200 µg/mL (≈ 515 µM)
- Activity (Human alphaherpesvirus 1): inactive
- MIC (Pseudomonas aeruginosa): > 200 µg/mL
- MIC (Klebsiella aerogenes): > 200 µg/mL
- MIC (Micrococcus): > 200 µg/mL
- MIC (Streptococcus pneumoniae): > 200 µg/mL
- MIC (Aspergillus fumigatus): 200 µg/mL (≈ 515 µM)
- Activity (Coxsackievirus): inactive
- MIC (Streptococcus pyogenes): > 200 µg/mL
- MIC (Candida albicans): > 200 µg/mL
- MIC (Klebsiella pneumoniae): > 200 µg/mL
- MIC (Staphylococcus aureus): 20 µg/mL (≈ 51.5 µM)
- MIC (Escherichia coli): > 200 µg/mL
- MIC (Streptococcus viridans): > 200 µg/mL
- MIC (Proteus vulgaris): > 200 µg/mL
- MIC (Microsporum canis): 50 µg/mL (≈ 129 µM)
- MIC (Neisseria gonorrhoeae): > 200 µg/mL
- Activity (Semliki Forest virus): inactive
- MIC (Serratia marcescens): > 200 µg/mL

From ChEMBL document CHEMBL1151113, “Umuhengerin, a new antimicrobially active flavonoid from Lantana trifolia” (1988)
